# Measured values as given in ChEMBL document CHEMBL1201862, “PubChem BioAssay data set” (2004).
# Activity calls are given as the source filed them.
# Legend:
# [1] = human group III sPLA2 inhibitors, dose response, biochemical, QFRET, IC50 (AID 743457);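 also: green fluorescence rise as the enzyme cleaves BODIPY PC-A2 in liposomes; potency for inhibition of the enzyme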
# [2] = system: Streptococcus; test: Group A Streptococcus viability loss, dose response, counter-screen for streptokinase expression inhibitor project, luminescence, BacTiterGlo (AID 1915); assay type: functional, organism-based;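 also: potency for reduction of bacterial viability or growth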
# [3] = target: ATP-dependent molecular chaperone HSP82 (Candida albicans (strain WO-1) (Yeast), UniProt C4YTQ8); test: loss of DOC-induced GRE-beta-galactosidase reporter signal, dose response, Hsp90 inhibitor project, S. cerevisiae, luminescence (AID 2400); assay type: functional, cell-based;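 also: beta-galactosidase luminescence from glucocorticoid response element reporter as proxy for Hsp90 function; inhibitor potency where signal loss means Hsp90 inhibition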
# [4] = NIH-3T3 fibroblast cytotoxicity, dose response, cytotoxicity control, cell-based, fluorescence, Alamar Blue, secondary assay (AID 2327); assay type: functional;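 also: NIH-3T3 mouse fibroblasts cultured with fluconazole at 8 µg/mL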
# [5] = target: T1, Serine/threonine-protein phosphatase (Candida dubliniensis (strain CD36 / CBS 7987 / NCPF 3949 / NRRLY-17841) (Yeast), UniProt B9W6M3); test: calcineurin pathway inhibitors in yeast reporter, dose response, S. cerevisiae, CDRE-lacZ, luminescence, secondary (AID 2388); assay type: functional, cell-based;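 also: yeast reporter cells carrying a calcineurin-responsive lacZ construct stimulated with calcium chloride; luminescent beta-galactosidase reporter signal in whole cells rather than isolated phosphatase activity; potency for inhibition where a drop in reporter signal means calcineurin blockade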
# T1 sequence (B9W6M3 whole entry): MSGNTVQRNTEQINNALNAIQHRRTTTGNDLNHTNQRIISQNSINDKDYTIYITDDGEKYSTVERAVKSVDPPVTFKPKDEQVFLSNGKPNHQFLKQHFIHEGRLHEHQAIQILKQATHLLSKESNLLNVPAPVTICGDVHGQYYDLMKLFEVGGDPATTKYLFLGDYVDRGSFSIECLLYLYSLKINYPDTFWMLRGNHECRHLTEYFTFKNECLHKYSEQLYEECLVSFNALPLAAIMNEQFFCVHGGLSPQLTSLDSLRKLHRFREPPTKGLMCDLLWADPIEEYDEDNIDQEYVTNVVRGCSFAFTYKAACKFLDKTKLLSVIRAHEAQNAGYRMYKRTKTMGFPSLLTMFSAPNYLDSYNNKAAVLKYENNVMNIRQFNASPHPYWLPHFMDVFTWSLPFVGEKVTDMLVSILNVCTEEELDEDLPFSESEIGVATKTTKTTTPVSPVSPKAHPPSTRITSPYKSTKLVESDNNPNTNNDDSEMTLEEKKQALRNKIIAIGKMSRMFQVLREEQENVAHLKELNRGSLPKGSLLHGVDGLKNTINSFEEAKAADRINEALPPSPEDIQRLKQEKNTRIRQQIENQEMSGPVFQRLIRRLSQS
# [6] = target: Heat shock protein HSP 90-alpha (Homo sapiens, UniProt P07900); assay type: functional, organism-based
# [7] = C. albicans growth with fluconazole, confirmation, fluorescence, retest (AID 2467); assay type: functional, cell-based
# [8] = cytotoxicity toward NIH3T3 fibroblasts, dose response, counter-screen, cell-based, ATP luminescence, mouse fibroblasts (AID 2010); assay type: functional;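 also: cells exposed to compound for about 90 hours before reading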
# [9] = inhibitors of intracellular T. cruzi replication, confirmation, NIH3T3 host cells, beta-gal luminescence (AID 2044); assay type: functional, cell-based;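 also: intracellular parasites grown in NIH/3T3 mouse fibroblasts as host cells; luminescent beta-galactosidase reporter signal from transgenic T. cruzi replicating inside host cells; inhibitors lower the luminescence signal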
# [10] = system: Streptococcus sp. 'group A'; test: growth inhibition of control SK(-) GAS strain, dose response, counter-screen for streptokinase expression inhibitor project, luminescence, kanamycin, BacTiterGlo, confirmation (AID 1900); assay type: functional, organism-based
# [11] = ZM109 Env clade C HIV-1 fusion inhibitors, dose response, HeLa effector, CEM target cells, luciferase, cherry-pick (AID 652058); assay type: functional, cell-based
# [12] = cytotoxicity in HPDE-C7 cells, cell-based, fluorescence, HTS (AID 430); assay type: functional; conditions: Homo sapiens
# [13] = target: T2, Short transient receptor potential channel 4 (Mus musculus, UniProt Q9QUQ5); test: mouse TRPC4 channel activators, dose response, cell-based, HEK293 TRPC4/mu-opioid, Fluo-4 calcium (AID 434937); assay type: functional
# T2 sequence (Q9QUQ5 whole entry): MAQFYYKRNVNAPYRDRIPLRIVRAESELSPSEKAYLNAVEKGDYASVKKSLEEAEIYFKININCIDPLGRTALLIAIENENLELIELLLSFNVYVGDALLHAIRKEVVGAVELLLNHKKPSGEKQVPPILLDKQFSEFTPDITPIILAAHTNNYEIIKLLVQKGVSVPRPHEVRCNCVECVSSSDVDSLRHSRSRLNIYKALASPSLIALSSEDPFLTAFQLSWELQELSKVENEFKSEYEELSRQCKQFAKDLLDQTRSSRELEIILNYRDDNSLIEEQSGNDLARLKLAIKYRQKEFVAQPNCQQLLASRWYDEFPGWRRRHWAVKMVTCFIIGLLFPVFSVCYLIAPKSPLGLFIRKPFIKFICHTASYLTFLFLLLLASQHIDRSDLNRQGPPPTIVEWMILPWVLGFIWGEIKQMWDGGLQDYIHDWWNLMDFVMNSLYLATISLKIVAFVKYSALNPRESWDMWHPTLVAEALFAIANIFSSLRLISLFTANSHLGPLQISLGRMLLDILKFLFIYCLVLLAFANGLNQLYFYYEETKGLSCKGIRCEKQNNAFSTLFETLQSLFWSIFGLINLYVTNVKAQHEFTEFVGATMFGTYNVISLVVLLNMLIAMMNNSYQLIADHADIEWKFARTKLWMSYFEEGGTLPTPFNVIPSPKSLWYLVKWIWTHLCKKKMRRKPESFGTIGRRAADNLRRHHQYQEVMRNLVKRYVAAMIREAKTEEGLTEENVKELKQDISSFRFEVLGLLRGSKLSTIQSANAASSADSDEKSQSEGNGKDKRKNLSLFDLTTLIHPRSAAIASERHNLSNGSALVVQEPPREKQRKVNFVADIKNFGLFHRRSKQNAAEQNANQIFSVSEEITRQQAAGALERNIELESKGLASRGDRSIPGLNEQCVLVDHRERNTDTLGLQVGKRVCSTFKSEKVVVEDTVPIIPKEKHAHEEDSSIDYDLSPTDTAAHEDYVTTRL
# [14] = cytotoxicity in HEK-293T cells, dose response, cytotoxicity control for TCR NF-kB inhibitor project, luminescence, T-cell screen hits (AID 489026); assay type: functional, cell-based;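 also: cells exposed to compound about 14 hours before the viability readout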
# [15] = inhibitors of clade B AD8 Env fusion, dose response, cell-based, cherry-pick (AID 652062); assay type: functional;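 also: luciferase signal from cell-cell fusion driven by HIV-1 clade B AD8 Env; potency is for inhibitors of fusion seen as a drop in luminescence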
# [16] = CEM21 lymphoblast cell cytotoxicity, dose response, cytotoxicity control for viral fusion inhibitor project, CellTiter-Glo luminescence, cherry-picked (AID 652042); assay type: functional, cell-based;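 also: potency for signal decrease meaning cytotoxicity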
# [17] = cytotoxicity in KRAS-transformed pancreatic duct cells, primary screen, cell-based, fluorescence, HTS (AID 431); assay type: functional; conditions: Homo sapiens;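 also: cell line used: HPDE-C7K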
# [18] = target: COUP transcription factor 2 (Homo sapiens, UniProt P24468); test: Luminescence-based cell-based high throughput dose response assay to identify inhibitors of COUP-TFII (NR2F2).; assay type: functional;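 also: HEK293 cells transiently cotransfected with COUP-TFII expression vector and reporter; luciferase reporter luminescence driven by COUP-TFII from the pX2-168 reporter plasmid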
# [19] = target: T3, Oxysterols receptor LXR-beta (Homo sapiens, UniProt P55055); assay type: functional, cell-based;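 also: agonist activity at LXR measured by a cell-based luminescence readout across a dose range, run as a counterscreen for daf-12 agonists; HEK293 cells with Gal4-LXR fusion and GAL4-driven luciferase reporter; potency for activation of Gal4-LXR reporter so compounds are agonists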
# T3 sequence (P55055 whole entry): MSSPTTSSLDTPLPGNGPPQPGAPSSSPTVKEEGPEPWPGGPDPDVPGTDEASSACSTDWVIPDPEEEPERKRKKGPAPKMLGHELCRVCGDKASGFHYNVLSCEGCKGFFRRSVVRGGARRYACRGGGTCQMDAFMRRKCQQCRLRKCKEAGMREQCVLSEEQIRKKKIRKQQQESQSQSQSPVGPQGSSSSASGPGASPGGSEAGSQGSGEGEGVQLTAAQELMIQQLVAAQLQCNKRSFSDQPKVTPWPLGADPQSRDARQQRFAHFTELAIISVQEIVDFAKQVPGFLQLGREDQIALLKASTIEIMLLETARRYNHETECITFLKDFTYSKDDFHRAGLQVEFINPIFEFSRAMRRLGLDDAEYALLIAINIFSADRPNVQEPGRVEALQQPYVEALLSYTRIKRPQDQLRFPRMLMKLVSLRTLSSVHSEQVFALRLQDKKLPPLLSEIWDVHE
# [20] = target: Photoreceptor-specific nuclear receptor (Homo sapiens, UniProt Q9Y5X4); assay type: functional, cell-based;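 also: CHO-S cells with Gal4-NCOR and VP16-NR2E3 two-hybrid luciferase reporter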
# [21] = target: fMet-Leu-Phe receptor (Homo sapiens, UniProt P21462); test: FPR ligands, dose response (AID 519); assay type: functional
# [22] = target: Histone-lysine N-methyltransferase NSD2 (Homo sapiens, UniProt O96028); assay type: biochemical
# [23] = target: Nonstructural protein 1 (Influenza A virus, UniProt Q194T2); assay type: functional, Influenza A virus (A/California/07/2009(H1N1))
# [24] = system: H4; test: Luminescence Cell-Based Dose Response HTS to Identify Activators of 5'UTR Stem-Loop Driven Prion Protein mRNA Translation in H4 Neuroglioblastoma Cells. [Related pubchem assays: 1829 (Project Summary), 1814 (Primary HTS)]; assay type: functional; conditions: Homo sapiens
# [25] = Luminescence Cell-Based Dose Confirmation HTS to Identify Activators of 5'UTR Stem-Loop Driven Alpha-Synuclein mRNA Translation in H4 Neuroglioblastoma Cells. [Related pubchem assays: 1829 (Project Summary), 1814 (Primary HTS)]; assay type: functional
# [26] = Luminescence Cell-Based Dose Response HTS to Identify Activators of Luciferase Translation or Activity in H4 […] Cells. [Related pubchem assays: 1829 (Project Summary), 1814 (Primary HTS)]; assay type: functional
# [27] = cells; assay type: functional, cell-based
# [28] = cells; assay type: functional, cell-based; remark: listed apart in the source
# [29] = Shn3 3'UTR reporter inhibitors, dose response, cell-based, Clone20 osteoblasts, firefly luciferase, cherry-picked (AID 624132); assay type: functional;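 also: firefly luciferase luminescence from reporter carrying the Shn3 3'UTR in osteoblasts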
# [30] = control 3'UTR Renilla luciferase suppression, dose response, counter-screen for Shn3 inhibitor project, cell-based, Clone20-Shn3RL, cherry-picked (AID 624133); assay type: functional
# [31] = inhibitors of control Renilla luciferase reporter, dose response, counter-screen for Shn3 3'UTR targeting project, Clone20-Shn3RL cells, dual-Glo, cherry-pick, set 2 (AID 720724); assay type: functional, cell-based; conditions: Dual-Go Shn3RL
# [32] = reduction of Shn3 3'UTR firefly luciferase signal, dose response, Schnurri-3 inhibitor project, cell-based, Clone20 osteoblasts, cherry-pick, set 2 (AID 720490); assay type: functional;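 also: actives lower the luminescence signal as inhibitors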
# [33] = HepG2 cell cytotoxicity, dose response, cytotoxicity control for Shn3 inhibitor project, CellTiter-Glo, cherry-picked (AID 624134); assay type: functional, cell-based
# [34] = HEK293T cytotoxicity, dose response, cytotoxicity control for miR-122 modulator project, cell-based, activator set, cherry-pick (AID 720690); assay type: functional;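 also: HEK293T human cells scored for general mammalian cytotoxicity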
# Sequence of fMet-Leu-Phe receptor (P21462 whole entry): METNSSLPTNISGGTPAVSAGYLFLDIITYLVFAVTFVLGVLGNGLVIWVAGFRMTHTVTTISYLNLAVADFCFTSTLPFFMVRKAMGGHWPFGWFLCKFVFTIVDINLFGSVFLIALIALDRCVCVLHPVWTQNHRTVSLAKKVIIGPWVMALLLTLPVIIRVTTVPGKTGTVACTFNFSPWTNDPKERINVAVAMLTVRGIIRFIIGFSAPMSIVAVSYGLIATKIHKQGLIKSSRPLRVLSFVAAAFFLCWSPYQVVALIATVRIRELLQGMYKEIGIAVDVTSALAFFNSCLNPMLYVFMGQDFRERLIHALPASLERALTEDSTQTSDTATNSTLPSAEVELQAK
# Sequence of COUP transcription factor 2 (P24468 whole entry, the tested form may be a part): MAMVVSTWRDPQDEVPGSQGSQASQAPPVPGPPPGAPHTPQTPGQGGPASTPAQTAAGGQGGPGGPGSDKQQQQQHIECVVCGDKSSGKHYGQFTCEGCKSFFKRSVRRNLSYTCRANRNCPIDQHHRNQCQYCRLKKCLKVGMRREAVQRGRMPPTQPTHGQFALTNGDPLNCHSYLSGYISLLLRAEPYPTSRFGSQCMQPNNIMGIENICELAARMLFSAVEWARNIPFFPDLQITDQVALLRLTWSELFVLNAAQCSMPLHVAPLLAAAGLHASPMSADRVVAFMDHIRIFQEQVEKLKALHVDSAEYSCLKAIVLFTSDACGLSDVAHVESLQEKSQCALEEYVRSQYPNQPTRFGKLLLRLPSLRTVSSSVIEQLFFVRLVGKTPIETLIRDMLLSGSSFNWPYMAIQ
# Sequence of ATP-dependent molecular chaperone HSP82 (C4YTQ8 whole entry): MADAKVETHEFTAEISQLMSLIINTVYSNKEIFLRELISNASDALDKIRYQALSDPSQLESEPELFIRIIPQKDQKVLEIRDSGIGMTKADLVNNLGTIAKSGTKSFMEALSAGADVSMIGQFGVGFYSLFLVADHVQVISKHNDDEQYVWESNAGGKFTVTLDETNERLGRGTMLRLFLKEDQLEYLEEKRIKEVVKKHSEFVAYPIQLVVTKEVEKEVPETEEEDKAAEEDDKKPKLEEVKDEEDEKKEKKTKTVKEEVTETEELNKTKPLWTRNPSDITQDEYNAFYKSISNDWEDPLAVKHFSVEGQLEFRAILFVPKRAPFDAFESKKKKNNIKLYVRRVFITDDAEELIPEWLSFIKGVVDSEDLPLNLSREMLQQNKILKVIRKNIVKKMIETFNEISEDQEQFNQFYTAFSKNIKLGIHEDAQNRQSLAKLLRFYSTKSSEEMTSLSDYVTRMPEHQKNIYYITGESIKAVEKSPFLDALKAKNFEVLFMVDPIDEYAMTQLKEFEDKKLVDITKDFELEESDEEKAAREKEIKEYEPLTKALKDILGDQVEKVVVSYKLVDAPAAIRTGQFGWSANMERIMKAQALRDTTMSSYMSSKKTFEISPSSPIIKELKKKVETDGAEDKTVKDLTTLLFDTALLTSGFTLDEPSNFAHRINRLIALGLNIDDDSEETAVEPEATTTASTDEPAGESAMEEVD
# Sequence of Histone-lysine N-methyltransferase NSD2 (O96028 whole entry): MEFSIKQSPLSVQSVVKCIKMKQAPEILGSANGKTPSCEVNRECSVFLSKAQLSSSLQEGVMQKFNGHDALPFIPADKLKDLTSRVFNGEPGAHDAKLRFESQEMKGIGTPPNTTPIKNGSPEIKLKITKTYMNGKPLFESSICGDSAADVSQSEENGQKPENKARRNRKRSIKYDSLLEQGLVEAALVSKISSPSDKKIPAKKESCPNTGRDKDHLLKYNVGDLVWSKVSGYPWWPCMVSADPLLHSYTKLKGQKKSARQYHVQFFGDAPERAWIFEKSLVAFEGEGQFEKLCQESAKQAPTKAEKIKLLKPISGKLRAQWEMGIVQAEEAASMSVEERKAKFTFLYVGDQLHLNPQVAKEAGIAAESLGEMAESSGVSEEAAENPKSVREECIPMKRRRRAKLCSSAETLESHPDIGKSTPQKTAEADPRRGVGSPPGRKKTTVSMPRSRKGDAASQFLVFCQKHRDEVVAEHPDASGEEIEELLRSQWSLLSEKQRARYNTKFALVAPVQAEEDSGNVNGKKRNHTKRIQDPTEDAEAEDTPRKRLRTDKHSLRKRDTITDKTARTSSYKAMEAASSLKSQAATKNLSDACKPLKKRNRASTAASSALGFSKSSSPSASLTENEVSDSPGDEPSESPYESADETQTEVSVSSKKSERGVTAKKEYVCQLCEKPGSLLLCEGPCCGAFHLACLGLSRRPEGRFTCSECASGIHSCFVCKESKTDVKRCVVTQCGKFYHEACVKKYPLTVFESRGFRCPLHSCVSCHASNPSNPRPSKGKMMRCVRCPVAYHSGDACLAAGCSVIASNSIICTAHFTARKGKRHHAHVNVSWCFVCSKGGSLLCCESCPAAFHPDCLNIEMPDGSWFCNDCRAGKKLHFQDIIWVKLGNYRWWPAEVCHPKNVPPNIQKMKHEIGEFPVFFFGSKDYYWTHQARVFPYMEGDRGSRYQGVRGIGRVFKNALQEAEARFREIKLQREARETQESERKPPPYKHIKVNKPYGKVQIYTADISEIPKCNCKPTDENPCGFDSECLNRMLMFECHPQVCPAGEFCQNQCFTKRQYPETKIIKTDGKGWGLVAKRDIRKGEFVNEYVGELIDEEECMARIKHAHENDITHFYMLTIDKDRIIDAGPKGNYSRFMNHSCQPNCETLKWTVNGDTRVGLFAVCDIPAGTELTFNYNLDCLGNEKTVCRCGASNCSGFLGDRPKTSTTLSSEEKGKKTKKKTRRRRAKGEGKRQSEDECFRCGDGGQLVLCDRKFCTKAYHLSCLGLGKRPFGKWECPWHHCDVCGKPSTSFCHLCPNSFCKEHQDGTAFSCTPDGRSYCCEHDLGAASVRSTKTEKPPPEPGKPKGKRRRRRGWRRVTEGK
# Sequence of Photoreceptor-specific nuclear receptor (Q9Y5X4 whole entry, the tested form may be a part): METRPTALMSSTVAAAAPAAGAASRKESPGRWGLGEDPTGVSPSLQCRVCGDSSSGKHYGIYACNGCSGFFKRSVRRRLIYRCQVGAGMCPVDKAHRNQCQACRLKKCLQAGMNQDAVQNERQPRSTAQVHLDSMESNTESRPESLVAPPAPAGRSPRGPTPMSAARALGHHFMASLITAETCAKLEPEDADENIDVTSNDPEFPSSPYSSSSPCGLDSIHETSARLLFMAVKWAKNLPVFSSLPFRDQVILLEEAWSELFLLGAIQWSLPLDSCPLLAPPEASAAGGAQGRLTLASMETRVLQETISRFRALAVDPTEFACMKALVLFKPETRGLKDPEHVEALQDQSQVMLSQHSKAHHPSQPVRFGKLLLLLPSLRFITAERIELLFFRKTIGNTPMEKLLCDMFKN
# Sequence of Nonstructural protein 1 (Q194T2 whole entry): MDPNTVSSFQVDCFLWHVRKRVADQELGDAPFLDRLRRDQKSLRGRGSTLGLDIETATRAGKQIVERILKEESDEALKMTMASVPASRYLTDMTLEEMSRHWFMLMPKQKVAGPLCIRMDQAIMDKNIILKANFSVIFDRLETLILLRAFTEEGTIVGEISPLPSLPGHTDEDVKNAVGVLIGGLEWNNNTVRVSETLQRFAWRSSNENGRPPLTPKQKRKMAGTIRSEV
smiles,measurement,setting,value
COc1ccc(Cl)cc1C(Nc1cccnc1)c1ccc2cccnc2c1O (configuration not stated),IC50,[1],> 122 µM (inactive)
same,EC50,[2],5.9 µM (active)
same,EC50,[3],16.3 µM (active)
same,EC50,[4],33.6 µM (active)
same,EC50,[5],> 180 µM (inactive)
same,AC50,[6],2.2 µM (active)
same,EC50,[7],0.728 µM (active)
same,EC50,[8],6.56 µM (active)
same,EC50,[9],1.86 µM (active)
same,EC50,[10],3.74 µM (active)
c1ccc2c(c1)CCN(c1[nH]cnc3c4ccccc4nc1-3)C2,AC50,[11],2.62 µM (active)
same,EC50,[3],> 150 µM (inactive)
same,EC50,[12],17.7 µM (active)
same,EC50,[4],> 150 µM (inactive)
same,EC50,[13],5.96 µM (active)
same,IC50,[14],21 µM (inactive)
same,EC50,[5],> 180 µM (inactive)
same,AC50,[15],4.09 µM (active)
same,EC50,[7],1.01 µM (active)
same,AC50,[16],64.8 µM (active)
same,EC50,[17],> 20 µM (not active)
same,IC50,[18],4.69 µM (active)
c1ccc(N=Nc2ccc(C3=NCCO3)cc2)cc1,EC50,[19],> 67.6 µM (inactive)
CCCc1cc(=O)n2nc(N3CCC(C(=O)N4CCN(c5ccc(OC)cc5)CC4)CC3)sc2n1,IC50,[20],4.09 µM (active)
same,IC50,[18],7.18 µM (active)
Cc1nc(C)c(C(=O)C2=C(O)C(=O)N(CCCn3ccnc3)C2c2ccc(Cl)cc2)s1 (configuration not stated),Ki,[21],> 66.7 µM (inactive)
COc1ccccc1C1C(C(=O)c2ccccc2)=C(O)C(=O)N1CC(C)C (configuration not stated),Ki,[21],5.5 µM (active)
Cc1ccc(N2CCOCC2)c2c1C(=O)c1ccccc1C2=O,AC50,[22],10.5 µM (active)
same,IC50,[1],> 122 µM (inactive)
same,IC50,[23],14.5 µM (active)
Cc1ccc(NC(S)=NC(=NS(=O)(=O)c2ccccc2)c2ccccc2)cc1,EC50,[19],> 67.5 µM (inactive)
same,EC50,[24],6.51 µM (active)
same,EC50,[25],5.09 µM (active)
same,EC50,[26],16.5 µM (active)
same,EC50,[27],202 µM (active)
same,EC50,[28],> 350 µM (not active)
CCn1cc(CN(C)S(=O)(=O)c2ccc3ccccc3c2)c(C)n1,AC50,[29],1.56 µM (active)
same,AC50,[30],22.8 µM (active)
same,AC50,[31],1.8 µM (active)
same,AC50,[32],2.23 µM (active)
same,AC50,[33],39.4 µM (active)
CCCNC(=O)C[C@@H]1CC[C@H]2[C@H](COc3ccc(NC(=O)c4ccc(C(F)(F)F)cc4)cc3C(=O)N2C)O1,AC50,[34],31.5 µM (active)
